{"source": "patent US6548544B1", "about": "“Method of treatment of priapism without raising systemic blood pressure” (The National University of Singapore, priority 1999, dated 2003)", "key": {"[1]": {"tested_on": "Pharmacologically Induced Prolonged Erection (Pipe)", "assay": "Effect on papaverine- and phenoxybenzamine-induced prolonged erection (PIPE), penile length, baboons", "format": "in vivo, baboon", "conditions": "for increase in penile length: intracavernous papaverine (40 mg) or phenoxybenzamine (3 mg), within 10 min after administration", "protocol": "Six male baboons weighing between 8 kg and 12 kg were used for the experiment. The animals were sedated with ketamine and anaesthetised with intravenous pentobarbitone injected through an indwelling venous catheter. Drugs were injected into the right corpora cavornosa at the mid-third of the shaft using a 29G needle and 1 ml syringe. Blood pressure was monitored through a cannulated femoral artery connected to the transducer. A measuring tape was used to measure penile length visually from a marked point at the base of the penis to the tip of urethral orifice. Changes in penile length were recorded for a period of 100 min after injection.\nIntracavernous injection of papaverine (40 mg) or phenoxybenzamine (3 mg) which produced maximal penile length within 20 and 40 min were repeated one week later and prostaglandin A2 was given at the peak time of the turgidity.\nIn baboons, intracavernous injection of papaverine (40 mg) or phenoxybenzamine (3 mg) produced a 130% increase in penile length within […] after administration (Table 1). This increase in penile length lasted for more than 100 min. This was repeated one week later and when prostaglandin A2 was injected intracavernosally at the maximum rigidity 20 min after the drug administration, the latter produced a marked reduction in penile length and within 40 min of injection, the penile size reduced to the original state of rugosity (Table 1). The fall in systemic blood pressure produced by prostaglandin A2 ranged from 8 to 16 mmHg. Each value reported in Table 1 represents the mean of six experiments."}, "cavernosum": {"tested_on": "cavernosum", "assay": "Other prostaglandins tested using the above protocol (contraction of the cavernosum)", "format": "in vivo", "conditions": "testing using the above protocol \"will demonstrate\""}}}
{"compound": "CC(COc1ccccc1)N(CCCl)Cc1ccccc1", "note": "(centres unmarked) [Phenoxybenzamine, phenoxybenzamine]", "values": [{"measurement": "increase in penile length", "setting": "[1]", "value": 130, "unit": "%"}, {"measurement": "Mean Change in Penile Length (% of Control)", "setting": "[1]; phenoxybenzamine 3 mg intracavernous alone, 1 min after injection", "value": 10, "unit": "%"}, {"measurement": "Mean Change in Penile Length (% of Control)", "setting": "[1]; phenoxybenzamine 3 mg intracavernous alone, 2 min after injection", "value": 15, "unit": "%"}, {"measurement": "Mean Change in Penile Length (% of Control)", "setting": "[1]; phenoxybenzamine 3 mg intracavernous alone, 5 min after injection", "value": 15, "unit": "%"}, {"measurement": "Mean Change in Penile Length (% of Control)", "setting": "[1]; phenoxybenzamine 3 mg intracavernous alone, 10 min after injection", "value": 48, "unit": "%"}, {"measurement": "Mean Change in Penile Length (% of Control)", "setting": "[1]; phenoxybenzamine 3 mg intracavernous alone, 20 min after injection", "value": 80, "unit": "%"}, {"measurement": "Mean Change in Penile Length (% of Control)", "setting": "[1]; phenoxybenzamine 3 mg intracavernous alone, 40 min after injection", "value": 120, "unit": "%"}, {"measurement": "Mean Change in Penile Length (% of Control)", "setting": "[1]; phenoxybenzamine 3 mg intracavernous alone, 60 min after injection", "value": 120, "unit": "%"}, {"measurement": "Mean Change in Penile Length (% of Control)", "setting": "[1]; phenoxybenzamine 3 mg intracavernous alone, 80 min after injection", "value": 120, "unit": "%"}, {"measurement": "Mean Change in Penile Length (% of Control)", "setting": "[1]; phenoxybenzamine 3 mg intracavernous alone, 100 min after injection", "value": 120, "unit": "%"}]}
{"compound": "CCCCC[C@H](O)/C=C/C1=C(CCCCCCC(=O)O)C(=O)CC1", "note": "[prostaglandin B1]", "values": [{"measurement": "contraction of the cavernosum", "setting": "cavernosum", "value": "effective in inducing, promoting, or otherwise facilitating contraction of the cavernosum but are not as active as prostaglandin A2"}]}
{"compound": "CCCCC[C@H](O)/C=C/C1=C(C/C=C\\CCCC(=O)O)C(=O)CC1", "note": "[prostaglandin B2]", "values": [{"measurement": "contraction of the cavernosum", "setting": "cavernosum", "value": "effective in inducing, promoting, or otherwise facilitating contraction of the cavernosum but are not as active as prostaglandin A2"}]}
{"compound": "COc1ccc(Cc2nccc3cc(OC)c(OC)cc23)cc1OC", "note": "[Papaverine, papaverine]", "values": [{"measurement": "increase in penile length", "setting": "[1]", "value": 130, "unit": "%"}, {"measurement": "Mean Change in Penile Length (% of Control)", "setting": "[1]; papaverine 40 mg intracavernous alone, 1 min after injection", "value": 30, "unit": "%"}, {"measurement": "Mean Change in Penile Length (% of Control)", "setting": "[1]; papaverine 40 mg intracavernous alone, 2 min after injection", "value": 40, "unit": "%"}, {"measurement": "Mean Change in Penile Length (% of Control)", "setting": "[1]; papaverine 40 mg intracavernous alone, 5 min after injection", "value": 52, "unit": "%"}, {"measurement": "Mean Change in Penile Length (% of Control)", "setting": "[1]; papaverine 40 mg intracavernous alone, 10 min after injection", "value": 130, "unit": "%"}, {"measurement": "Mean Change in Penile Length (% of Control)", "setting": "[1]; papaverine 40 mg intracavernous alone, 20 min after injection", "value": 130, "unit": "%"}, {"measurement": "Mean Change in Penile Length (% of Control)", "setting": "[1]; papaverine 40 mg intracavernous alone, 40 min after injection", "value": 130, "unit": "%"}, {"measurement": "Mean Change in Penile Length (% of Control)", "setting": "[1]; papaverine 40 mg intracavernous alone, 60 min after injection", "value": 130, "unit": "%"}, {"measurement": "Mean Change in Penile Length (% of Control)", "setting": "[1]; papaverine 40 mg intracavernous alone, 80 min after injection", "value": 130, "unit": "%"}, {"measurement": "Mean Change in Penile Length (% of Control)", "setting": "[1]; papaverine 40 mg intracavernous alone, 100 min after injection", "value": 130, "unit": "%"}]}
{"compound": "CCCCC[C@H](O)/C=C/[C@H]1C=CC(=O)[C@@H]1CCCCCCC(=O)O", "note": "[prostaglandin A1]", "values": [{"measurement": "contraction of the cavernosum", "setting": "cavernosum", "value": "effective in inducing, promoting, or otherwise facilitating contraction of the cavernosum but are not as active as prostaglandin A2"}]}
